From patent publication US20160022556A1, “1,5-ANHYDRO-D-GLUCITOL-CONTAINING COLLAGEN PRODUCTION ACCELERATOR” (NATIONAL UNIVERSITY CORPORATION UNIVERSITY OF TOYOMA, priority 2013, published 2016)

Key:
skin surface of human = assay: Moisturizing effect: water content of skin surface in short-term use test of human volunteers (SKICON200); format: in vivo; settings: for Water Content of Skin Surface, Mean (%) SD, relative value where the initial value was defined as 100%: 2.5 μL/cm^2, medial part of forearm, n = 4
Description: The moisturizing effects of the 1,5-AG are evaluated by a short-term use test of human volunteers. Specifically, with 5 males of ages of 26 to 34 as test individuals, an aqueous solution of a sample listed in Table 2 in a given concentration was applied in an amount of 2.5 μL/cm^2 at a medial part of forearm, and the water content of the skin surface was measured in accordance with the following method.
<Measurement of Water Content of Skin Surface>
Each test individual washed his medial part of forearm with a given detergent, and was conditioned for 15 minutes in a thermohygrostat (room temperature: 22° C., humidity: 45%). Thereafter, an initial value of the water content of the skin surface was measured with SKICON200 (manufactured by I.B.S. Co., Ltd., corneometer). Next, each of the test samples and purified water were coated according to a coating method. Further, uncoated sites were set. Water contents were measured immediately after the sample coating, after 15 minutes, after 30 minutes, and after 45 minutes. The water content of the uncoated sites was measured matching the measurement time at the sample-coated sites. The change in the water contents of each site to be tested was expressed in a relative value where an initial value was defined as 100%. The difference in the water content of skin surface in each test individual before and after the use of test samples was subjected to a significance test according to a Student-t test. The data for test individuals of which water contents of skin surface of the uncoated sites increased with passage of time were discarded as abnormal values, and the results calculated using the measurement values of four individuals are shown in Table 2 and FIG. 2.

normal human fibroblasts = assay: Type I collagen synthesis of normal human fibroblasts (ELISA of culture supernatant; protein by BCA method); format: cell-based; settings: for Type I Collagen, Mean S.D.: 24-hour culture, n = 6, untreated control 7.03 ± 0.25
Description: The action of 1,5-AG on the synthesis of type I collagen of dermal fibroblasts is evaluated. Specifically, normal human fibroblasts were spread on a 96-well microplate using Dulbecco's modified eagle medium (DMEM) containing 0.5% fetal bovine serum (FBS). The fibroblasts were cultured at 37° C. for 24 hours, and thereafter the medium was exchanged with a 0.5% FBS-containing DMEM containing a given concentration of samples. As a positive control (P.C.), the same treatment was carried out with magnesium ascorbyl phosphate. After the 24-hour culture in the sample-containing medium, the culture supernatant was collected and subjected to ELISA. Also, the amount of protein was measured in accordance with bicinchoninic acid (BCA) method with PIERCE (manufactured by Pierce Biotechnology Inc.).
The culture supernatant and the collagen solutions for calibration curve were each dispensed in each well of high-adsorbent ELISA plate, and allowed to coat at 4° C. over one day and night. Thereafter, the coated plate was blocked at 37° C. for 1 hour with a 1% bovine serum albumin (BSA) solution. The primary antibody reaction was carried out by diluting Anti-Human Collagen Type I antibody (manufactured by Bio-Rad Laboratories, Inc., Rabbit) with a 0.3% BSA solution, and the dilution was added to each well and allowed to react at 37° C. for 1 hour. The secondary antibody reaction was carried out by diluting Histofine MAX-PO® (manufactured by NICHIREI, Rabbit) with a phosphate buffer, and the dilution was added to each well, and allowed to react at 37° C. for 1 hour. Next, 0.3 mg/mL of phosphate-citrate buffer (0.1 M, pH 4.0) containing 2,2′-azinobis(3-ethylbenzothiazoline-6-sulfonic acid)diammonium salt (ABTS) and a 0.03% hydrogen peroxide was added to each well and allowed to react for 20 minutes, and the absorbance of the reaction mixture was measured at 405 nm with a microplate reader.
The amount of the collagen in the culture supernatant was calculated from the calibration curve prepared from commercially available collagen. By dividing the amount of collagen in the medium by the amount of proteins in all the cells, the amount of collagen synthesized per unit protein amount was calculated. The amount of collagen synthesized at each concentration was subjected to a significance test using a Student-t test, and a difference with an untreated control was evaluated.

Row | Compound | Water Content of Skin Surface, Mean (%) SD, relative value where the initial value was defined as 100% (skin surface of human; 1% aqueous solution, After 15 min) [%] | Water Content of Skin Surface, Mean (%) SD, relative value where the initial value was defined as 100% (skin surface of human; 1% aqueous solution, After 30 min) [%] | Water Content of Skin Surface, Mean (%) SD, relative value where the initial value was defined as 100% (skin surface of human; 1% aqueous solution, After 45 min) [%] | Water Content of Skin Surface, Mean (%) SD, relative value where the initial value was defined as 100% (skin surface of human; 1% aqueous solution, Immediately after Coating) | Type I Collagen, Mean S.D. (normal human fibroblasts; 313 μg/mL sample) [ng/μg protein] | Type I Collagen, Mean S.D. (normal human fibroblasts; 625 μg/mL sample) [ng/μg protein] | Type I Collagen, Mean S.D. (normal human fibroblasts; 1250 μg/mL sample) [ng/μg protein] | amount of type I collagen synthesized in the normal human fibroblasts (normal human fibroblasts; versus untreated control, Student-t test) | Water Content of Skin Surface, Mean (%) SD, relative value where the initial value was defined as 100% (skin surface of human; 2% aqueous solution, After 15 min) [%] | Water Content of Skin Surface, Mean (%) SD, relative value where the initial value was defined as 100% (skin surface of human; 2% aqueous solution, After 30 min) [%] | Water Content of Skin Surface, Mean (%) SD, relative value where the initial value was defined as 100% (skin surface of human; 2% aqueous solution, After 45 min) [%] | Water Content of Skin Surface, Mean (%) SD, relative value where the initial value was defined as 100% (skin surface of human; 2% aqueous solution, Immediately after Coating) | action on the water content of skin surface (moisturizing property) (skin surface of human; test sample of 2% 1,5-AG, human volunteers)
1 | Sodium Hyaluronate [reference compound] | 122.6 ± 15.7 | 116.9 ± 23.7 | 130.1 ± 10.3 | 3,101.8 ± 1,716.3% |  |  |  |  |  |  |  |  | 
2 | OC[C@H]1OC[C@H](O)[C@@H](O)[C@@H]1O [1,5-AG, 1,5-anhydro-D-glucitol] |  |  |  |  | 7.81 ± 0.60 | 8.28 ± 0.50 | 8.31 ± 0.49 | significantly increased | 154.2 ± 12.3 | 180.3 ± 36.2 | 176.7 ± 15.8 | 2,535.4 ± 749.6% | action of increasing the water content of skin surface
